Data as given in PMC10096453, “One-Pot Synthesis and Evaluation of Antioxidative Stress and Anticancer Properties of an Active Chromone Derivative” (Molecules, 2023).
Where “and” joins values, the source holds several entries; their conditions need not be identical. Equal values may be shown once.

What was measured:
Assay type in all cases: cell-based
HeLa cells [1] = experiment: Cell migration/invasion scratch assay, HeLa; conditions: 100 μM, 24 h
Description: Cell migration in the HEK293 and the HeLa cell lines was investigated. The assay was conducted to investigate cell maintenance after being damaged. […] Cells were grown in a 24-well plate until 80% confluence and treated with 2f and 2j for 24 or 48 h compared to the untreated control. The cells in each well were then scratched to create a wound area across the center of the plates using a plastic 20 μL pipette tip. Cell images were taken immediately, and the scratch area was measured at 0, 24, and 48 h. During the experiment, the percentage of wound area was tracked as an indirect assessment. Compared to the control, the percentage of empty area change at each time point was quantified with a Nikon eclipse Ts2R inverted microscope.
Pictures were taken at the start of the experiment (0 h) and 24 h later. […] Scale bars represent 500 μm.

[2] = MTT cytotoxicity assay, HACAT cells; conditions: human; for viability at 24 h, 100 µM: read-out: % Viability ± SD (at 100 μM) HACAT 24 h; for viability at 48 h, 100 µM: read-out: % Viability ± SD (at 100 μM) HACAT 48 h
Description: (§1) HEK293, HACAT, and HeLa cells were grown in modified Eagles’ minimum essential medium (EMEM, Gibco) with 10% fetal bovine serum (FBS, Gibco), 1% of 100 U/mL streptomycin and 100 U/mL penicillin (Gibco). Cells were seeded in culture flasks and maintained in an incubator at 37 °C in a humidified atmosphere with 5% CO2. After reaching 80–90% of confluence, cells were detached by incubation with 0.25% trypsin-0.2% EDTA (Gibco) for 5 min and plated for experiments.
(§2) This study examined cell cultures of HEK293, HACAT, and HeLa cells. The cytotoxicity of the test samples was carried out by the MTT (3-(4,5-dimethylthiazol-2-yl)-2,5-diphenyltetrazolium bromide) assay. The cells were seeded in 96-well microliter plates (2.0 × 10^4 cells/well). Stock solutions of the test compounds were prepared in DMSO. After 24 h, cells were treated with different concentrations of samples and diluted with media to obtain the final desired concentration. The treated cells were then incubated at 37 °C and 5% CO2 for 24 and 48 h. After incubation, the medium was replaced with 0.05% w/v of MTT solution in PBS and further incubated for 3 h. The solution was then discarded and DMSO was added to dissolve the formed formazan crystals. Each well’s absorbance (A) was measured at 570 nm using a microplate reader (FLUOstar Omega^TM, BMG Labtech, Ortenberg, Germany). All experiments were carried out in triplicate and repeated for at least three experiments.

HEK293 cells = experiment: Cell migration scratch assay, HEK293; conditions: HEK293, 100 μM, 24 and 48 h
Description: Cell migration in the HEK293 and the HeLa cell lines was investigated. The assay was conducted to investigate cell maintenance after being damaged. The active samples from in vitro antioxidant activity were examined. Cells were grown in a 24-well plate until 80% confluence and treated with 2f and 2j for 24 or 48 h compared to the untreated control. The cells in each well were then scratched to create a wound area across the center of the plates using a plastic 20 μL pipette tip. Cell images were taken immediately, and the scratch area was measured at 0, 24, and 48 h. During the experiment, the percentage of wound area was tracked as an indirect assessment. Compared to the control, the percentage of empty area change at each time point was quantified with a Nikon eclipse Ts2R inverted microscope.
Figure 7 A scratch assay was performed to examine the migration ability of synthesized compounds 2f and 2j at 100 μM compared with untreated control. Representative pictures of the assay induce the migration of HEK cells using quercetin as a reference. Pictures were taken at the start of the experiment (0 h) 24 and 48 h later. Pictures of representative experiments are shown, and the relative migration of cells is represented with a bar graph; means ± SD (n = 3; *: p < 0.05 and **: p < 0.001, Turkey HSD), Scale bars represent 500 μm.

HeLa cells [3] = experiment: Cell cycle analysis by flow cytometry; conditions: 24 h, 2f, 2j, quercetin at IC50, paclitaxel 5 μM
Description: The paclitaxel (5 μM) was performed as the positive control.
The treatment of HeLa cells and compounds was the same as in the apoptosis protocol. The cells were harvested for 200 μL and centrifuged at 600× g for 5 min and washed with PBS. The mixing cells were slowly added 200 μL of ice-cold 70% ethanol and incubated for at least 3 h at −20 °C. Cells were centrifuged and washed with PBS. Finally, cells were stained with 200 μL of Muse® cell cycle reagent and incubated at room temperature for 30 min in the dark. The cell was analyzed by flow cytometry (Guava Muse Cell Analyzer, Luminex, Austin, TX, USA).

HeLa cells [4] = experiment: Cellular ROS assay (ROS deep red fluorescence kit); conditions: pretreatment 50, 100, 150 μM for 24 h; 5 mM H2O2 30 min
Description: ROS is the main contributor to cell death. These reactive molecules are formed by several mechanisms and can be detected by various techniques. In order to investigate the level of cellular ROS after treatment with compounds, the accumulation of intracellular ROS in cells was quantified with a cellular ROS assay kit (ab186029, Abcam, Boston, USA) fluorescence assay. After pretreatment with 2f, 2j, and 3i at 50, 100, and 150 μM for 24 h, cell stress was induced with 5 mM hydrogen peroxide for 30 min. The cells in each well were collected and resuspended with a serum-free medium containing the ROS red probe. Subsequently, cells were incubated at 37 °C for 30 min in the dark, and fluorescence was read at Ex/Em = 650/675 nm.
In this study, Hela cells were seeded overnight at 20,000 cells/90 µL/well in a black wall/clear bottom 96-well plate. Cells included those untreated (control) and those pre-treated with compounds at various concentrations (50, 100, 150 μM) for 24 h. The ROS deep red assay solution (100 μL/well) was added and incubated at 5% CO2, 37 °C incubator for 30 min. The fluorescence signal was monitored at Ex/Em = 650/675 nm (cut off = 665 nm) with bottom read mode within 30 min (cellular ROS assay kit, ab186029, abcam).

[5] = MTT cytotoxicity assay, HEK293 cells; conditions: human, HEK293 cells, 100 μM; for viability at 24 h, 100 µM: read-out: % Viability ± SD (at 100 μM) HEK293 24 h; for viability at 48 h, 100 µM: read-out: % Viability ± SD (at 100 μM) HEK293 48 h
Description: as §1, §2

For `O=C(c1ccccc1)c1c(-c2ccccc2)oc2c(O)c(O)ccc2c1=O` [2f, 3-Benzoyl-7,8-dihydroxy-2-phenyl-4H-chromen-4-one], the “Invasion of HeLa cells” value (HeLa cells [1]) was “significantly inhibited the invasion of HeLa cells”, the viability at 24 h, 100 µM [2] was 81.6 ± 8.46% and the viability at 48 h, 100 µM [2] was 77.1 ± 5.03%. The “Cell migration vs untreated” value (HEK293 cells) was “significant induction of cell migration”, the “Cell cycle phase arrest” value (HeLa cells [3]) was “S phase arrest” and the “Cell population in G0/G1 phase” value (HeLa cells [3]) was 41.26 ± 1.21%. The “Cell population in G2/M phase” value (HeLa cells [3]) was 24.71 ± 4.02%, the “Cell population in S phase” value (HeLa cells [3]) was 34.03% and 34.03 ± 3.81 % and the “Cellular ROS fluorescence intensity vs H2O2-treated cells” value (HeLa cells [4]) was “significantly reduced”. It also gave a viability at 24 h, 100 µM [5] of 105 ± 1.19% and a viability at 48 h, 100 µM [5] of 74.7 ± 0.83%.

For `O=C(Oc1ccc2c(=O)c(C(=O)c3ccccc3)c(-c3ccccc3)oc2c1O)c1ccccc1` [2j, 3-Benzoyl-8-hydroxy-4-oxo-2-phenyl-4H-chromen-7-yl benzoate], the “Invasion of HeLa cells” value (HeLa cells [1]) was “significantly inhibited the invasion of HeLa cells”, the viability at 24 h, 100 µM [2] was 72.6 ± 5.53% and the viability at 48 h, 100 µM [2] was 58 ± 2.63%. The “Cell migration vs untreated” value (HEK293 cells) was “significant induction of cell migration”, the “Cell cycle phase arrest” value (HeLa cells [3]) was “S phase arrest” and the “Cell population in G0/G1 phase” value (HeLa cells [3]) was 32.90 ± 4.05%. The “Cell population in G2/M phase” value (HeLa cells [3]) was 35.49 ± 4.98%, the “Cell population in S phase” value (HeLa cells [3]) was 31.61% and 31.61 ± 0.93 % and the “Cellular ROS fluorescence intensity vs H2O2-treated cells” value (HeLa cells [4]) was “significantly reduced”. It also gave a viability at 24 h, 100 µM [5] of 96 ± 2.62% and a viability at 48 h, 100 µM [5] of 71.6 ± 5.19%.

With `O=c1c(O)c(-c2ccc(O)c(O)c2)oc2cc(O)cc(O)c12` [Quercetin, quercetin, reference compound] the “Invasion of HeLa cells” value (HeLa cells [1]) was “significantly inhibited the invasion of HeLa cells”, the viability at 24 h, 100 µM [2] was 85.6 ± 125% and the viability at 48 h, 100 µM [2] was 76.8 ± 2.32%. The “Cell migration vs untreated” value (HEK293 cells) was “significant induction of cell migration”, the “Cell cycle phase arrest” value (HeLa cells [3]) was “S phase arrest” and the “Cell population in G0/G1 phase” value (HeLa cells [3]) was 35.72 ± 2.67%. The “Cell population in G2/M phase” value (HeLa cells [3]) was 26.40 ± 0.18%, the “Cell population in S phase” value (HeLa cells [3]) was 37.88 ± 2.75 % and the “Cell population in S phase” value (HeLa cells [3]; listed as quercetin) was 37.88%. The viability at 24 h, 100 µM [5] was 102 ± 1.58% and the viability at 48 h, 100 µM [5] was 86.6 ± 4.66%.
